Laboratory results taken from patent US6355799B1, “Substituted benzene compounds, process for their preparation, and herbicidal and defoliant compositions containing them” (ISK Americas Incorporated, priority 1997, dated 2002).

Tests used:
Assay type in all cases: in vivo
[1] = tested on: redroot pigweed (Amaranthus retroflexus, AMARE); assay: Pre-emerge test, greenhouse herbicide activity screening; conditions: pre-emerge, 14 days after application, scale 0-100
Method in brief: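 Plants grown in 10 cm pots of sandy loam mix received acetone-dissolved compounds through a moving flat-fan nozzle. Doses ranged from 15 to 1000 g ai/ha. Pre-emerge pots were seeded one day earlier, post-emerge pots 8–21 days earlier. Fourteen days on, each pot was graded 0–100 for damage.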

[2] = tested on: barnyardgrass (Echinochloa crus-galli, ECHCG); assay: as above; conditions: pre-emerge, 14 days after application, scale 0-100
Method in brief: (§1)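 Herbicidal damage is scored 0 (none) to 100 (complete plant death) two weeks after a simulated field spray. Rates span 15–1000 g ai/ha, delivered in acetone at 187 l/ha. For post-emergence treatments, plants have 2–3 leaves and the spray carries 0.25% v/v non-ionic surfactant.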

[3] = tested on: green foxtail (Setaria viridis, SETVI); assay: as above; conditions: pre-emerge, 14 days after application, scale 0-100
Method in brief: as §1

[4] = tested on: ivyleaf morningglory (Ipomoea hederacea, IPOHE); assay: as above; conditions: pre-emerge, 14 days after application, scale 0-100
Method in brief: as §1

[5] = tested on: johnsongrass (Sorghum halepense, SORHA); assay: as above; conditions: pre-emerge, 14 days after application, scale 0-100
Method in brief: as §1

[6] = tested on: lambsquarters (Chenopodium album, CHEAL); assay: as above; conditions: pre-emerge, 14 days after application, scale 0-100
Method in brief: as §1

[7] = tested on: large crabgrass (Digitaria sanguinalis, DIGSA); assay: as above; conditions: pre-emerge, 14 days after application, scale 0-100
Method in brief: as §1

[8] = tested on: sicklepod (Cassia obtusifolia, CASOB); assay: as above; conditions: pre-emerge, 14 days after application, scale 0-100
Method in brief: as §1

[9] = tested on: velvetleaf (Abutilon theophrasti, ABUTH); assay: as above; conditions: pre-emerge, 14 days after application, scale 0-100
Method in brief: as §1

[10] = tested on: field corn (Zea mays L., var. Dekalb 535, CORN); assay: Pre-emerge test, crop safety; conditions: pre-emerge, 14 days after application, scale 0-100
Method in brief: (§2)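 Rating: 0–100 visual injury, 14 DAA. Application: acetone, 187 l/ha, 15–1000 g ai/ha, flat-fan track sprayer with nozzle 40–45 cm above soil or canopy. Post-emerge runs used 0.25% v/v surfactant on 2–3 leaf plants.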

[11] = tested on: upland rice (Oryza sp., var. Tebonnet, RICE); assay: Pre-emerge test, crop safety; conditions: pre-emerge, 14 days after application, scale 0-100
Method in brief: as §2

[12] = tested on: barnyardgrass (Echinochloa crus-galli, ECHCG); assay: Post-emerge test, greenhouse herbicide activity screening; conditions: post-emerge, 14 days after application, rating scale 0-100
Method in brief: as §2

[13] = tested on: green foxtail (Setaria viridis, SETVI); assay: as above; conditions: post-emerge, 14 days after application, rating scale 0-100
Method in brief: as §2

[14] = tested on: ivyleaf morningglory (Ipomoea hederacea, IPOHE); assay: as above; conditions: post-emerge, 14 days after application, rating scale 0-100
Method in brief: as §2

[15] = tested on: lambsquarters (Chenopodium album, CHEAL); assay: as above; conditions: post-emerge, 14 days after application, rating scale 0-100
Method in brief: as §2

[16] = tested on: large crabgrass (Digitaria sanguinalis, DIGSA); assay: as above; conditions: post-emerge, 14 days after application, rating scale 0-100
Method in brief: as §2

[17] = tested on: redroot pigweed (Amaranthus retroflexus, AMARE); assay: as above; conditions: post-emerge, 14 days after application, rating scale 0-100
Method in brief: as §2

[18] = tested on: sicklepod (Cassia obtusifolia, CASOB); assay: as above; conditions: post-emerge, 14 days after application, rating scale 0-100
Method in brief: as §2

[19] = tested on: velvetleaf (Abutilon theophrasti, ABUTH); assay: as above; conditions: post-emerge, 14 days after application, rating scale 0-100
Method in brief: as §2

[20] = tested on: field corn (Zea mays L., var. Dekalb 535, CORN); assay: Post-emerge test, crop safety; conditions: post-emerge, 14 days after application, rating scale 0-100
Method in brief: as §1

[21] = tested on: upland rice (Oryza sp., var. Tebonnet, RICE); assay: Post-emerge test, crop safety; conditions: post-emerge, 14 days after application, rating scale 0-100
Method in brief: as §1

COc1c(Cl)cc(F)c(-n2c(=O)cc(C(F)(F)F)n(C)c2=O)c1NC(=O)COc1ccc(F)cc1 [2-133]
70: phytotoxicity rating RICE (crop damage) ([11]; 63 g ai/ha) | SETVI phytotoxicity rating ([13]; 63 g ai/ha) | DIGSA phytotoxicity rating ([16]; 250 g ai/ha) | CORN phytotoxicity rating (crop damage) ([20]; 63 g ai/ha)
20: phytotoxicity rating CORN (crop damage) ([10]; 63 g ai/ha)
30: DIGSA phytotoxicity rating ([16]; 63 g ai/ha)
65: phytotoxicity rating ECHCG ([2]; 63 g ai/ha)
100: phytotoxicity rating AMARE ([1]; 63 g ai/ha) | phytotoxicity rating AMARE ([1]; 250 g ai/ha) | phytotoxicity rating SETVI ([3]; 250 g ai/ha) | phytotoxicity rating IPOHE ([4]; 250 g ai/ha) | phytotoxicity rating SORHA ([5]; 250 g ai/ha) | phytotoxicity rating CHEAL ([6]; 63 g ai/ha) | phytotoxicity rating CHEAL ([6]; 250 g ai/ha) | phytotoxicity rating DIGSA ([7]; 250 g ai/ha) | phytotoxicity rating CASOB ([8]; 250 g ai/ha) | phytotoxicity rating ABUTH ([9]; 63 g ai/ha) | phytotoxicity rating ABUTH ([9]; 250 g ai/ha) | IPOHE phytotoxicity rating ([14]; 250 g ai/ha) | CHEAL phytotoxicity rating ([15]; 63 g ai/ha) | CHEAL phytotoxicity rating ([15]; 250 g ai/ha) | AMARE phytotoxicity rating ([17]; 63 g ai/ha) | AMARE phytotoxicity rating ([17]; 250 g ai/ha) | CASOB phytotoxicity rating ([18]; 250 g ai/ha) | ABUTH phytotoxicity rating ([19]; 63 g ai/ha) | ABUTH phytotoxicity rating ([19]; 250 g ai/ha)
90: IPOHE phytotoxicity rating ([14]; 63 g ai/ha)
93: phytotoxicity rating RICE (crop damage) ([11]; 250 g ai/ha)
80: phytotoxicity rating IPOHE ([4]; 63 g ai/ha) | phytotoxicity rating CORN (crop damage) ([10]; 250 g ai/ha) | CASOB phytotoxicity rating ([18]; 63 g ai/ha) | RICE phytotoxicity rating (crop damage) ([21]; 63 g ai/ha)
55: phytotoxicity rating CASOB ([8]; 63 g ai/ha)
85: ECHCG phytotoxicity rating ([12]; 250 g ai/ha)
50: ECHCG phytotoxicity rating ([12]; 63 g ai/ha)
95: phytotoxicity rating ECHCG ([2]; 250 g ai/ha) | phytotoxicity rating SETVI ([3]; 63 g ai/ha) | phytotoxicity rating DIGSA ([7]; 63 g ai/ha) | CORN phytotoxicity rating (crop damage) ([20]; 250 g ai/ha) | RICE phytotoxicity rating (crop damage) ([21]; 250 g ai/ha)
75: phytotoxicity rating SORHA ([5]; 63 g ai/ha) | SETVI phytotoxicity rating ([13]; 250 g ai/ha)

Cn1c(C(F)(F)F)cc(=O)n(-c2ccc(Cl)cc2NC(=O)C=Cc2ccccc2)c1=O [2-137]
80: phytotoxicity rating ABUTH ([9]; 63 g ai/ha)
100: phytotoxicity rating AMARE ([1]; 63 g ai/ha) | phytotoxicity rating AMARE ([1]; 250 g ai/ha) | phytotoxicity rating CHEAL ([6]; 63 g ai/ha) | phytotoxicity rating CHEAL ([6]; 250 g ai/ha) | phytotoxicity rating DIGSA ([7]; 250 g ai/ha) | phytotoxicity rating ABUTH ([9]; 250 g ai/ha) | IPOHE phytotoxicity rating ([14]; 63 g ai/ha) | CHEAL phytotoxicity rating ([15]; 63 g ai/ha) | CHEAL phytotoxicity rating ([15]; 250 g ai/ha) | AMARE phytotoxicity rating ([17]; 63 g ai/ha) | AMARE phytotoxicity rating ([17]; 250 g ai/ha) | CASOB phytotoxicity rating ([18]; 63 g ai/ha) | ABUTH phytotoxicity rating ([19]; 63 g ai/ha) | ABUTH phytotoxicity rating ([19]; 250 g ai/ha)
0: phytotoxicity rating SORHA ([5]; 63 g ai/ha) | phytotoxicity rating CORN (crop damage) ([10]; 63 g ai/ha) | ECHCG phytotoxicity rating ([12]; 63 g ai/ha) | DIGSA phytotoxicity rating ([16]; 63 g ai/ha)
30: phytotoxicity rating SETVI ([3]; 63 g ai/ha) | phytotoxicity rating IPOHE ([4]; 63 g ai/ha) | phytotoxicity rating IPOHE ([4]; 250 g ai/ha) | ECHCG phytotoxicity rating ([12]; 250 g ai/ha) | SETVI phytotoxicity rating ([13]; 250 g ai/ha)
90: IPOHE phytotoxicity rating ([14]; 250 g ai/ha) | CASOB phytotoxicity rating ([18]; 250 g ai/ha)
10: phytotoxicity rating ECHCG ([2]; 63 g ai/ha) | phytotoxicity rating CORN (crop damage) ([10]; 250 g ai/ha) | SETVI phytotoxicity rating ([13]; 63 g ai/ha) | DIGSA phytotoxicity rating ([16]; 250 g ai/ha) | CORN phytotoxicity rating (crop damage) ([20]; 63 g ai/ha) | RICE phytotoxicity rating (crop damage) ([21]; 63 g ai/ha)
20: phytotoxicity rating RICE (crop damage) ([11]; 63 g ai/ha)
50: phytotoxicity rating ECHCG ([2]; 250 g ai/ha) | phytotoxicity rating DIGSA ([7]; 63 g ai/ha) | phytotoxicity rating CASOB ([8]; 63 g ai/ha) | phytotoxicity rating CASOB ([8]; 250 g ai/ha) | phytotoxicity rating RICE (crop damage) ([11]; 250 g ai/ha)
70: phytotoxicity rating SORHA ([5]; 250 g ai/ha) | RICE phytotoxicity rating (crop damage) ([21]; 250 g ai/ha)
60: phytotoxicity rating SETVI ([3]; 250 g ai/ha) | CORN phytotoxicity rating (crop damage) ([20]; 250 g ai/ha)
